In patent US8343983B2, “Substituted pyrazolo-pyrimidine compounds” (ArQule, Inc., priority 2009, dated 2013):
Where two headings read alike, the source gives them in different places.

Tested on: cancer cells
Assay: MTS assay: inhibition of cell growth (formazan absorbance at 492 nm after 72 hours with test compound)
Type: cell-based
Details: inhibition class
Description: Cells were maintained at 37° C., 5% CO2 in DMEM media supplemented with 1% fetal bovine serum, penicillin/streptomycin and fungizone (Invitrogen). Cells were seeded into 96-well tissue culture plates at 3000 per well and cultured at 37° C. for 18 hours. Test compounds were dissolved and diluted to 300× in DMSO then diluted 1:40 in DMEM. Cells were incubated with test compounds for 72 hours followed by incubation with tetrazolium compound (3-(4,5-dimethylthiazol-2-yl)-5-(3-carboxymethoxyphenyl)-2-(4-sulfophenyl)-2H-tetrazolium, inner salt; MTS) and the electron coupling reagent, phenazine methosulfate (PMS) for 4 hours. […] The ability of compounds to inhibit cell growth in this assay is correlated with the reduction of dehydrogenase enzyme activity found in metabolically active cells. The measurement of the absorbance of the formazan was assessed using an ENVISION™ (Perkin Elmer) microplate reader at 492 nm. The calculated IC50 value is the concentration of the test compound that causes a 50% decrease in the absorbance. […] A=>79% inhibition, B=>50 to 79% inhibition, C=<50% inhibition.

[1] = Homo sapiens, DLD-1 cells, read-out: DLD-1, MTS 72 hours at 10 uM
[2] = Homo sapiens, KATO III cells, read-out: KATO III, MTS 72 hours at 10 uM
[3] = Homo sapiens, MDA-MB-231 cells, read-out: MDA-MB-231, MTS 72 hours at 10 uM
[4] = Homo sapiens, NCI-H1299 cells, read-out: NCI-H1299, MTS 72 hours at 10 uM
[5] = Homo sapiens, PC-3 cells, read-out: PC-3, MTS 72 hours at 10 uM
[6] = PACA-2 cells, read-out: PACA-2, MTS 72 hours at 10 uM

Row | SMILES | inhibition at 10 µM [1] [%] | inhibition at 10 µM [2] [%] | inhibition at 10 µM [3] [%] | inhibition at 10 µM [4] [%] | inhibition at 10 µM [5] [%] | inhibition at 10 µM [6] [%]
1 | c1ccc(CN2CCc3n[nH]c4nc(NC5Cc6ccccc6C5)nc2c34)cc1 [Compound 17, 6-benzyl-N-(2,3-dihydro-1H-inden-2-yl)-2,6,7,8-tetrahydro-1,2,3,5,6-pentaazaacenaphthylen-4-amine] | 50 to 79 | 50 to 79 | < 50 | 50 to 79 | < 50 | 50 to 79
2 | COc1ccc(CN2CCc3n[nH]c4nc(NCc5ccc(Cl)cc5)nc2c34)cc1 [Compound 117, N-(4-chlorobenzyl)-6-(4-methoxybenzyl)-2,6,7,8-tetrahydro-1,2,3,5,6-pentaazaacenaphthylen-4-amine] | 50 to 79 | < 50 | 50 to 79 | 50 to 79 | < 50 | < 50
3 | COc1ccc(CN2CCc3n[nH]c4nc(SC)nc2c34)cc1 [Compound 99, 6-(4-methoxybenzyl)-4-(methylsulfanyl)-2,6,7,8-tetrahydro-1,2,3,5,6-pentaazaacenaphthylene] | < 50 | < 50 | < 50 | < 50 | < 50 | < 50
4 | COc1cc(CNc2nc3c4c(n[nH]c4n2)CCN3Cc2ccccc2)cc(OC)c1OC [Compound 50, 6-benzyl-N-(3,4,5-trimethoxybenzyl)-2,6,7,8-tetrahydro-1,2,3,5,6-pentaazaacenaphthylen-4-amine] | < 50 | < 50 | < 50 | < 50 | < 50 | < 50
5 | c1ccc(CN2CCc3n[nH]c4nc(NCC5CCCCC5)nc2c34)cc1 [Compound 55, 6-benzyl-N-(cyclohexylmethyl)-2,6,7,8-tetrahydro-1,2,3,5,6-pentaazaacenaphthylen-4-amine] | > 79 | > 79 | > 79 | 50 to 79 | < 50 | < 50
6 | COc1ccc(CN2CCCc3n[nH]c4nc(NCc5ccccc5)nc2c34)cc1 [Compound 247, N-benzyl-6-(4-methoxybenzyl)-6,7,8,9-tetrahydro-2H-1,2,3,5,6-pentaazabenzo[cd]azulen-4-amine] | < 50 | < 50 | < 50 | < 50 | < 50 | < 50
7 | Clc1ccc(CCNc2nc3c4c(n[nH]c4n2)CCN3Cc2ccccc2)cc1Cl [Compound 70, 6-benzyl-N-[2-(3,4-dichlorophenyl)ethyl]-2,6,7,8-tetrahydro-1,2,3,5,6-pentaazaacenaphthylen-4-amine] | > 79 | > 79 | > 79 | > 79 | < 50 | > 79
8 | c1ccc(CN2CCc3n[nH]c4nc(NCCc5ccccn5)nc2c34)cc1 [Compound 65, 6-benzyl-N-(2-pyridin-2-ylethyl)-2,6,7,8-tetrahydro-1,2,3,5,6-pentaazaacenaphthylen-4-amine] | < 50 | < 50 | < 50 | < 50 | < 50 | < 50
9 | O=C(c1ccco1)N1CCN(c2nc3c4c(n[nH]c4n2)CCN3Cc2ccccc2)CC1 [Compound 53, 6-benzyl-4-[4-(2-furoyl)piperazin-1-yl]-2,6,7,8-tetrahydro-1,2,3,5,6-pentaazaacenaphthylene] | < 50 | < 50 | 50 to 79 | < 50 | < 50 | < 50
10 | c1ccc(CN2CCN(CCNc3nc4c5c(n[nH]c5n3)CCN4Cc3ccccc3)CC2)cc1 [Compound 33, 6-benzyl-N-[2-(4-benzylpiperazin-1-yl)ethyl]-2,6,7,8-tetrahydro-1,2,3,5,6-pentaazaacenaphthylen-4-amine] | < 50 | < 50 | < 50 | < 50 | < 50 | < 50
11 | O=C(NCc1ccccc1)C1CN(Cc2ccccc2)c2nc(N3CCN(c4ccccc4)CC3)nc3[nH]nc1c23 (stereo not drawn) [Compound 231, N,6-dibenzyl-4-(4-phenylpiperazin-1-yl)-2,6,7,8-tetrahydro-1,2,3,5,6-pentaazaacenaphthylene-8-carboxamide] | 50 to 79 | 50 to 79 | > 79 | > 79 | 50 to 79 | 50 to 79
12 | Cc1cccc(CCNc2nc3c4c(n[nH]c4n2)CCN3Cc2ccccc2)c1 [Compound 77, 6-benzyl-N-[2-(3-methylphenyl)ethyl]-2,6,7,8-tetrahydro-1,2,3,5,6-pentaazaacenaphthylen-4-amine] | < 50 | < 50 | < 50 | 50 to 79 | < 50 | < 50
13 | O=C(NCc1ccccc1)C1CN(Cc2ccccc2)c2nc(NC3CCC3)nc3[nH]nc1c23 (stereo not drawn) [Compound 232, N,6-dibenzyl-4-(cyclobutylamino)-2,6,7,8-tetrahydro-1,2,3,5,6-pentaazaacenaphthylene-8-carboxamide] | < 50 | < 50 | < 50 | < 50 | < 50 | < 50
14 | c1ccc(CN2CCc3n[nH]c4nc(NCc5cccnc5)nc2c34)cc1 [Compound 10, 6-benzyl-N-(pyridin-3-ylmethyl)-2,6,7,8-tetrahydro-1,2,3,5,6-pentaazaacenaphthylen-4-amine] | < 50 | < 50 | < 50 | < 50 | < 50 | < 50
15 | N#Cc1cccnc1N1CCN(c2nc3c4c(n[nH]c4n2)CCN3Cc2ccccc2)CC1 [Compound 8, 2-[4-(6-benzyl-2,6,7,8-tetrahydro-1,2,3,5,6-pentaazaacenaphthylen-4-yl)piperazin-1-yl]nicotinonitrile] | < 50 | < 50 | < 50 | < 50 | < 50 | < 50
16 | c1ccc(CN2CCc3n[nH]c4nc(NC5CCC5)nc2c34)cc1 [Compound 49, 6-benzyl-N-cyclobutyl-2,6,7,8-tetrahydro-1,2,3,5,6-pentaazaacenaphthylen-4-amine] | < 50 | < 50 | 50 to 79 | < 50 | < 50 | < 50
17 | Cc1ccccc1CCNc1nc2c3c(n[nH]c3n1)CCN2Cc1ccccc1 [Compound 87, 6-benzyl-N-[2-(2-methylphenyl)ethyl]-2,6,7,8-tetrahydro-1,2,3,5,6-pentaazaacenaphthylen-4-amine] | < 50 | < 50 | < 50 | 50 to 79 | < 50 | < 50
